Test results as given in patent publication US9617267B2, “Compounds and methods for kinase modulation, and indications therefor” (Plexxikon Inc., priority 2009, dated 2017).
Where two headings read alike, the source gives them in different places.

Assays:
B-Raf [1] = target: B-Raf (Homo sapiens (Human), UniProt P15056); assay: B-Raf kinase activity biochemical assay (AlphaScreen, biotin-MEK1 phosphorylation); conditions: B-Raf
Outline: (§1)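 Biotin-MEK1 phosphorylation measured after 45 min kinase reaction at RT with 100 μM ATP final; compounds tested at 8 points from 0.1 mM DMSO stock.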

B-Raf [2] = assay: as above; conditions: for Biochemical activity ratio B/V600E: ratio of IC50 B-Raf / B-Raf V600E; for Biochemical activity ratio B/C: ratio of IC50 B-Raf / c-Raf-1
Outline: as §1

B-Raf V600E = B-Raf V600E (Homo sapiens (Human), UniProt P15056, V600E); assay: B-Raf V600E kinase activity biochemical assay (AlphaScreen, biotin-MEK1 phosphorylation); conditions: for IC50: B-Raf V600E; for Biochemical activity ratio V600E/C: ratio of IC50 B-Raf V600E / c-Raf-1
Outline: as §1

c-Raf-1 = c-Raf-1 (Homo sapiens, UniProt P04049); assay: c-Raf-1 kinase activity biochemical assay (AlphaScreen, biotin-MEK1 phosphorylation)
Outline: as §1

[3] = Relative solubility by turbidity threshold concentration in aqueous buffers (pH 1.5, 4.5, 6.8, 7.4); assay type: physicochemical; conditions: for turbidity threshold (L, M, H) 1.4: pH 1.4 [sic] (method: SGF pH 1.5); for turbidity threshold (L, M, H) 4.5: pH 4.5 (SIF); for turbidity threshold (L, M, H) 6.8: pH 6.8 (SIF); for turbidity threshold (L, M, H) 7.4: pH 7.4 (HEPES)
Outline: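 Solubility class (high >250 μM, moderate 31.3–250 μM, low <31.3 μM) comes from the concentration where absorbance reaches a 0.01 threshold, averaged across 490/535/650 nm. Samples were compound dilutions from DMSO stock, 1 μL into 99 μL buffer at pH 1.5, 4.5, 6.8 or 7.4.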

CYP1A2 = CYP1A2 (Homo sapiens (Human), UniProt P05177); assay: CYP enzyme inhibition, fluorescent substrate (CEC)
Outline: (§2)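 Ten-point 1:1 compound dilutions in NADPH-regenerating cofactor mix, pre-incubated 10 min at 37 °C before enzyme/substrate addition: CYP1A2 0.5 pmol with 5 μM CEC, 15 min, 409 ex/460 em; CYP2D6 1.5 pmol with 1.5 μM AMMC, 30 min, 409 ex/530 em. IC50 from fluorescent product vs concentration.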

CYP2C19 = CYP2C19 (Homo sapiens (Human), UniProt P33261); assay: CYP enzyme inhibition, fluorescent substrate (CEC)
Outline: (§3)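 Human CYP activity was followed by the fluorescence of the metabolized product of a known substrate, which falls as metabolism is inhibited. Compounds from 100 mM DMSO stocks were serially diluted 1:1 over 10 points in co-factor mix and preincubated 10 min at 37 °C. IC50 was fitted from signal versus concentration.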

CYP2C9 = CYP2C9 (Homo sapiens (Human), UniProt P11712); assay: CYP enzyme inhibition, fluorescent substrate (MFC)
Outline: as §3

CYP2D6 = CYP2D6 (Homo sapiens (Human), UniProt P10635); assay: CYP enzyme inhibition, fluorescent substrate (AMMC); assay type: in vitro ADME; conditions: read-out: Cyp IC50 2D6
Outline: as §2

CYP3A4(BFC) = CYP3A4(BFC) (Homo sapiens (Human), UniProt P08684); assay: CYP enzyme inhibition, fluorescent substrate BFC
Outline: as §3

CYP3A4(BQ) = CYP3A4(BQ) (Homo sapiens (Human), UniProt P08684); assay: CYP enzyme inhibition, fluorescent substrate BQ
Outline: as §3

[4] = read-out: Cyp IC50 2C19, CYP2C19, substrate CEC
[5] = read-out: Cyp IC50 3A4(BFC), CYP3A4, substrate BFC
[6] = read-out: Cyp IC50 2C9, CYP2C9, substrate MFC
[7] = read-out: Cyp IC50 3A4(BQ), CYP3A4, substrate BQ

Sequence of B-Raf V600E (P15056 whole entry V600E): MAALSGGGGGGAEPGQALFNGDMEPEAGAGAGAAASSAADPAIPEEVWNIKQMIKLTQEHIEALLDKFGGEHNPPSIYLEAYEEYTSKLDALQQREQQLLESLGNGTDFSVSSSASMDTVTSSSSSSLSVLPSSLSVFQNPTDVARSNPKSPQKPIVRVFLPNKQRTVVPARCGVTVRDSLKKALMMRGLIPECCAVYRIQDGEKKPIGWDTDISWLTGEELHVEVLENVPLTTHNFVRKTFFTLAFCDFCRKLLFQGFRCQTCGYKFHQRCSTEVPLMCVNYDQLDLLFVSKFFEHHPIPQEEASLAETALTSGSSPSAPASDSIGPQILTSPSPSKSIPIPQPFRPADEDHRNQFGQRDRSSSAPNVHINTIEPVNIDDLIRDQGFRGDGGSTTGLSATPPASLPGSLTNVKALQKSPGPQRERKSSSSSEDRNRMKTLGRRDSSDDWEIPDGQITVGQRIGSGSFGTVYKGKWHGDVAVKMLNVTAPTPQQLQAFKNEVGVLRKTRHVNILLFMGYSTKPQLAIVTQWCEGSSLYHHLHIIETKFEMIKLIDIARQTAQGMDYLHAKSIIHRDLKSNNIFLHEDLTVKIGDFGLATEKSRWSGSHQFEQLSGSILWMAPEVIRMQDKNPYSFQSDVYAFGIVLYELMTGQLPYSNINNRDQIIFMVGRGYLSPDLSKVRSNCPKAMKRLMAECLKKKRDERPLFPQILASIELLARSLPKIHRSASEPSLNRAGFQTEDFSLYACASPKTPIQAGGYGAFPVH
Sequence of CYP1A2 (P05177 whole entry): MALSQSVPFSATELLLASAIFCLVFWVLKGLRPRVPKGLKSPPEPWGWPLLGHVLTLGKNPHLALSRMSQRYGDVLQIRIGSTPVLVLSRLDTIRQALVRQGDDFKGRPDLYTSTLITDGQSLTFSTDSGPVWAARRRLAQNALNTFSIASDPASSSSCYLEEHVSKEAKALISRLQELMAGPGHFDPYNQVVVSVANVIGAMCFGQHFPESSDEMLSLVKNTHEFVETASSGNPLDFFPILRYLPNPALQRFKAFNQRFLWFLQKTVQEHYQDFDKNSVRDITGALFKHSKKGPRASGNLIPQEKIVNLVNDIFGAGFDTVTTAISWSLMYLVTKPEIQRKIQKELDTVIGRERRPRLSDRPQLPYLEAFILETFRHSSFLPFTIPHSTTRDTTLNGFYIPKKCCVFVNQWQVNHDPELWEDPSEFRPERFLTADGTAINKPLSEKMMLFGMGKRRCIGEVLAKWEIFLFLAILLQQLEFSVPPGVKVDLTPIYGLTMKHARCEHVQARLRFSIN
Sequence of CYP2C19 (P33261 whole entry): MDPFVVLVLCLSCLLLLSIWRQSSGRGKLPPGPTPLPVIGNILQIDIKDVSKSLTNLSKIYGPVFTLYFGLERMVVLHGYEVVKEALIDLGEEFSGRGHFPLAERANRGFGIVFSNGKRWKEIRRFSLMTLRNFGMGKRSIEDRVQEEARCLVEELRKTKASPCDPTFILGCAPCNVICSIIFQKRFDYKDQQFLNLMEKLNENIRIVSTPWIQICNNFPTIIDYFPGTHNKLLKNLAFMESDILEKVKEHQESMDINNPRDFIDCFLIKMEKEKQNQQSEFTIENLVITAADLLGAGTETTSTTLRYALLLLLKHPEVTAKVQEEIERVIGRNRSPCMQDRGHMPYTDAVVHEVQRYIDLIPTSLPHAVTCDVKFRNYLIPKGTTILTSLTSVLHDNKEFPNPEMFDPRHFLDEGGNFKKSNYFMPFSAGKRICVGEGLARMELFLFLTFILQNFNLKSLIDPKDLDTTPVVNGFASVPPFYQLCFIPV
Sequence of CYP2D6 (P10635 whole entry): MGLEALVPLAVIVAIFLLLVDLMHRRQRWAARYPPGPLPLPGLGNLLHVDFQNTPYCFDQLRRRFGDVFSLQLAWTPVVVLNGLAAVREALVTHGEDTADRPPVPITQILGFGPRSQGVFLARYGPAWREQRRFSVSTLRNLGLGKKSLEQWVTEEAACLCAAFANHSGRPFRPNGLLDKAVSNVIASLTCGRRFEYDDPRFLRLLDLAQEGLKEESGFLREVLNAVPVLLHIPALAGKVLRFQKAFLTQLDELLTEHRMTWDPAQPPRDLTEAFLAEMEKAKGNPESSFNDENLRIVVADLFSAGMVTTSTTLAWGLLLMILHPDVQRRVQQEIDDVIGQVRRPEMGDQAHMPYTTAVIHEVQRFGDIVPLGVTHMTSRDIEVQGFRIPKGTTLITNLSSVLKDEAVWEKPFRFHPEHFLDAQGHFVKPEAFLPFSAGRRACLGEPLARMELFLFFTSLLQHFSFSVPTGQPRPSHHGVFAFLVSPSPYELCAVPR
Sequence of c-Raf-1 (P04049 whole entry, looked up): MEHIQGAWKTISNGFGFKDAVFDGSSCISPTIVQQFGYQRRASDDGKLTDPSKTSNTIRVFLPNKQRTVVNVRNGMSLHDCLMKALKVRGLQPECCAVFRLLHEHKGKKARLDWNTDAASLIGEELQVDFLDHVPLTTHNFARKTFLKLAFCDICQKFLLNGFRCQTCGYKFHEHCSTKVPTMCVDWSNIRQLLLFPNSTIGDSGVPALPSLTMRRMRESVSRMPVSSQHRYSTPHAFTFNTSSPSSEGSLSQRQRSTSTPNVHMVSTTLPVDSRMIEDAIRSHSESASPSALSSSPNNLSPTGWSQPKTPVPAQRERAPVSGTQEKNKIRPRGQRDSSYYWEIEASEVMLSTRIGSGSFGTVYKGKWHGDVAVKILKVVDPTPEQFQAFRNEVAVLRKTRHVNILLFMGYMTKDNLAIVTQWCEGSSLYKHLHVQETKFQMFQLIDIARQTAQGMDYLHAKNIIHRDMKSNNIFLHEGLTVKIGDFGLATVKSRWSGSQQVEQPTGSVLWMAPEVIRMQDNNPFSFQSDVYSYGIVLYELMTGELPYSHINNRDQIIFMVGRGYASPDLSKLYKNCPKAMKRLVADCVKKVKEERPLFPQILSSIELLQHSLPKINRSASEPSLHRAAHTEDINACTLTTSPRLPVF
Sequence of B-Raf (Homo sapiens (Human), UniProt P15056) (P15056 whole entry): as the sequence (P15056 whole entry V600E) above, with E600V counted along it
Sequence of CYP3A4(BQ) (P08684 whole entry): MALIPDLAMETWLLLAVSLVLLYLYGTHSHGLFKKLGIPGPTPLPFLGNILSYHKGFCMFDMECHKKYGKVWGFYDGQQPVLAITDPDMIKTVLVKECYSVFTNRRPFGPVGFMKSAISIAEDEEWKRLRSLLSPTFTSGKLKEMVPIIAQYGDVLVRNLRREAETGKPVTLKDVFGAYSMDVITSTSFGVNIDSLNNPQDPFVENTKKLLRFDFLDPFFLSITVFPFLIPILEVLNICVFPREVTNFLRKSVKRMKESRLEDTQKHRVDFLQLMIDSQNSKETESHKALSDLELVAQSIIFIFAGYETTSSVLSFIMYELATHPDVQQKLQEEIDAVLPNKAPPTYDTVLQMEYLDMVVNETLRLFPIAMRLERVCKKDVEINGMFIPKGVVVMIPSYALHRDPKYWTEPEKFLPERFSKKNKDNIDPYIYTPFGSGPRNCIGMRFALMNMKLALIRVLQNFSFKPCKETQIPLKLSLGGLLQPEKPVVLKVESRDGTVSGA
Sequence of CYP3A4(BFC) (P08684 whole entry): as above
Sequence of CYP2C9 (P11712 whole entry): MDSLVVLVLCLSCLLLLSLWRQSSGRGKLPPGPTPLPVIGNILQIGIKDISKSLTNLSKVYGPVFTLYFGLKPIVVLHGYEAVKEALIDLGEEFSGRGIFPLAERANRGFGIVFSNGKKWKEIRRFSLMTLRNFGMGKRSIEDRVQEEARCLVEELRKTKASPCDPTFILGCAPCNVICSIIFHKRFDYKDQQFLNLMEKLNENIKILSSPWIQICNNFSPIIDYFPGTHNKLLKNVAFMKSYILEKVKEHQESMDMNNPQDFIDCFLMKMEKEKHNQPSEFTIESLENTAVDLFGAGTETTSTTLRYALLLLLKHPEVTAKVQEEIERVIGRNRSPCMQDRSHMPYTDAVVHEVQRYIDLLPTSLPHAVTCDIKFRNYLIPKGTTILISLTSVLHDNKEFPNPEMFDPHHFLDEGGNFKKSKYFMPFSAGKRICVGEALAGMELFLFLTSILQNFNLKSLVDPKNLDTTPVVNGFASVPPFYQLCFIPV

| SMILES | IC50 (B-Raf [1]) [µM] | Biochemical activity ratio B/V600E (B-Raf [2]) | Biochemical activity ratio B/C (B-Raf [2]) | IC50 (B-Raf V600E) [µM] | Biochemical activity ratio V600E/C (B-Raf V600E) | IC50 (c-Raf-1) [µM] | turbidity threshold (L, M, H) 1.4 [3] | turbidity threshold (L, M, H) 4.5 [3] | turbidity threshold (L, M, H) 6.8 [3] | turbidity threshold (L, M, H) 7.4 [3] | IC50 (CYP1A2; human, 15 min) [µM] | IC50 (CYP2C19; [4]) [µM] | IC50 (CYP2C9) [µM] | IC50 (CYP2D6) [µM] | IC50 (CYP3A4(BFC); [5]) [µM] | IC50 (CYP2C19) [µM] | IC50 (CYP2C9; [6]) [µM] | IC50 (CYP3A4(BQ); [7]) [µM] | also measured |
| --- | --- | --- | --- | --- | --- | --- | --- | --- | --- | --- | --- | --- | --- | --- | --- | --- | --- | --- | --- |
| Cc1ncnc2[nH]cc(C(=O)c3c(F)ccc(NS(=O)(=O)CC(C)C)c3F)c12 [P-1003, 2-Methyl-propane-1-sulfonic acid [2,4-difluoro-3-(4-methyl-7H-pyrrolo[2,3-d]pyrimidine-5-carbonyl)-phenyl]-amide] | > 0.1 | >10 | >10 | < 0.1 | 0.1-10 | < 0.1 | H (high solubility if the threshold concentration is >250 μm) | M (moderate solubility if the threshold concentration is 31.3 μM to 250 μM) | M (moderate solubility if the threshold concentration is 31.3 μM to 250 μM) | M (moderate solubility if the threshold concentration is 31.3 μM to 250 μM) | > 10 | > 10 | 5 to 10 | > 10 | > 10 | – | – | – | IC50 (CYP3A4(BQ)): 5 to 10 µM |
| CCCS(=O)(=O)Nc1ccc(F)c(C(=O)c2c[nH]c3ncc(F)c(C#N)c23)c1F [P-2003, Propane-1-sulfonic acid [3-(4-cyano-5-fluoro-1H-pyrrolo[2,3-b]pyridine-3-carbonyl)-2,4-difluoro-phenyl]-amide] | < 0.1 | 0.1-10 | 0.1-10 | < 0.1 | 0.1-10 | < 0.1 | M (moderate solubility if the threshold concentration is 31.3 μM to 250 μM) | M (moderate solubility if the threshold concentration is 31.3 μM to 250 μM) | M (moderate solubility if the threshold concentration is 31.3 μM to 250 μM) | M (moderate solubility if the threshold concentration is 31.3 μM to 250 μM) | – | – | < 5 | > 10 | – | > 10 | – | – | IC50 (CYP1A2): > 10 µM; IC50 (CYP3A4(BFC)): 5 to 10 µM; IC50 (CYP3A4(BQ)): 5 to 10 µM |
| CCCS(=O)(=O)Nc1ccc(F)c(C(=O)c2c[nH]c3ncnc(NC4COC4)c23)c1F [P-1060, Propane-1-sulfonic acid {2,4-difluoro-3-[4-(oxetan-3-ylamino)-7H-pyrrolo[2,3-d]pyrimidine-5-carbonyl]-phenyl}-amide] | < 0.1 | 0.1-10 | >10 | < 0.1 | 0.1-10 | < 0.1 | H (high solubility if the threshold concentration is >250 μm) | M (moderate solubility if the threshold concentration is 31.3 μM to 250 μM) | H (high solubility if the threshold concentration is >250 μm) | H (high solubility if the threshold concentration is >250 μm) | > 10 | > 10 | – | > 10 | > 10 | – | > 10 | > 10 | – |
| COc1ncnc2[nH]cc(C(=O)c3c(F)ccc(NS(=O)(=O)CC(C)C)c3F)c12 [P-1004, 2-Methyl-propane-1-sulfonic acid [2,4-difluoro-3-(4-methoxy-7H-pyrrolo[2,3-d]pyrimidine-5-carbonyl)-phenyl]-amide] | > 0.1 | >10 | >10 | < 0.1 | 0.1-10 | < 0.1 | H (high solubility if the threshold concentration is >250 μm) | H (high solubility if the threshold concentration is >250 μm) | H (high solubility if the threshold concentration is >250 μm) | H (high solubility if the threshold concentration is >250 μm) | > 10 | > 10 | 5 to 10 | > 10 | > 10 | – | – | > 10 | – |
| O=C(c1c(F)ccc(NS(=O)(=O)c2ccc(C(F)(F)F)cc2)c1F)c1c[nH]c2ncnc(NC3CCOC3)c12 (centres unmarked) [P-1054, N-{2,4-Difluoro-3-[4-(tetrahydro-furan-3-ylamino)-7H-pyrrolo[2,3-d]pyrimidine-5-carbonyl]-phenyl}-4-trifluoromethyl-benzenesulfonamide] | < 0.1 | 0.1-10 | 0.1-10 | < 0.1 | >10 | < 0.1 | M (moderate solubility if the threshold concentration is 31.3 μM to 250 μM) | L (low solubility if the threshold concentration is <31.3 μM) | L (low solubility if the threshold concentration is <31.3 μM) | L (low solubility if the threshold concentration is <31.3 μM) | > 10 | > 10 | 5 to 10 | > 10 | > 10 | – | – | > 10 | – |
| CCc1ccc(S(=O)(=O)Nc2ccc(F)c(C(=O)c3c[nH]c4ncnc(NC(C)C)c34)c2F)cc1 [P-1042, N-[2,4-Difluoro-3-(4-isopropylamino-7H-pyrrolo[2,3-d]pyrimidine-5-carbonyl)-phenyl]-4-ethyl-benzenesulfonamide] | < 0.1 | 0.1-10 | 0.1-10 | < 0.1 | >10 | < 0.1 | M (moderate solubility if the threshold concentration is 31.3 μM to 250 μM) | L (low solubility if the threshold concentration is <31.3 μM) | L (low solubility if the threshold concentration is <31.3 μM) | L (low solubility if the threshold concentration is <31.3 μM) | > 10 | – | – | > 10 | > 10 | 5 to 10 | > 10 | > 10 | – |
| O=C(c1c(F)ccc(NS(=O)(=O)c2ccc(C(F)(F)F)cc2)c1F)c1c[nH]c2ncnc(NC3CC3)c12 [P-1011, N-[3-(4-Cyclopropylamino-7H-pyrrolo[2,3-d]pyrimidine-5-carbonyl)-2,4-difluoro-phenyl]-4-trifluoromethyl-benzenesulfonamide] | < 0.1 | 0.1-10 | >10 | > 0.1 | >10 | < 0.1 | M (moderate solubility if the threshold concentration is 31.3 μM to 250 μM) | L (low solubility if the threshold concentration is <31.3 μM) | L (low solubility if the threshold concentration is <31.3 μM) | L (low solubility if the threshold concentration is <31.3 μM) | > 10 | – | – | > 10 | < 5 | 5 to 10 | > 10 | > 10 | – |
| CCn1cc(Nc2ncnc3[nH]cc(C(=O)c4c(F)ccc(NS(=O)(=O)c5ccc(C(F)(F)F)cc5)c4F)c23)cn1 [P-1063, N-{3-[4-(1-Ethyl-1H-pyrazol-4-ylamino)-7H-pyrrolo[2,3-d]pyrimidine-5-carbonyl]-2,4-difluoro-phenyl}-4-trifluoromethyl-benzenesulfonamide] | < 0.1 | 0.1-10 | >10 | > 0.1 | >10 | < 0.1 | L (low solubility if the threshold concentration is <31.3 μM) | L (low solubility if the threshold concentration is <31.3 μM) | L (low solubility if the threshold concentration is <31.3 μM) | L (low solubility if the threshold concentration is <31.3 μM) | > 10 | – | 5 to 10 | > 10 | – | 5 to 10 | – | < 5 | IC50 (CYP3A4(BFC)): 5 to 10 µM |
